Measurements from patent US20260242419A1, “A CYCLIC PEPTIDE FOR TRAPPING INTERLEUKIN-1 BETA” (Merck Sharp & Dohme LLC, priority 2023, published 2026).
Starred links: 1 amine or outer side, 2 acyl side, 3 side chain; linkers in the order of their positions; H or OH if unused. Non-standard residues stand in square brackets, D forms with d. Residues, ends and D or L forms follow the SMILES beside them. Phe(4-(5-CO2H-2-pyrimidyl)) = N[C@@H](Cc1ccc(-c2ncc(C(=O)O)cn2)cc1)C(=O)O; dPro(4R-(4-pyridylmethyl)) = O=C(O)[C@H]1C[C@@H](Cc2ccncc2)CN1; Trp(βS-Me,4-F) = C[C@@H](c1c[nH]c2cccc(F)c12)[C@H](N)C(=O)O; Bip(4'-COOH) = N[C@@H](Cc1ccc(-c2ccc(C(=O)O)cc2)cc1)C(=O)O; Ala(1-bicyclo(1.1.1)pentyl) = N[C@@H](CC12CC(C1)C2)C(=O)O; X26 = O=C(O)c1ccc(-c2ncc(C[C@H](N[*:1])C(=O)[*:2])cn2)cc1; dPro(4R-Bzl(4-F)) = O=C(O)[C@H]1C[C@@H](Cc2ccc(F)cc2)CN1; Ala(pyrimidin-5-yl) = N[C@@H](Cc1cncnc1)C(=O)O; Phe(4-COOH) = N[C@@H](Cc1ccc(C(=O)O)cc1)C(=O)O; Pro(cis-4-F) = O=C(O)[C@@H]1C[C@H](F)CN1; AEF = NCCOc1ccc(C[C@H](N)C(=O)O)cc1; 4Pal = N[C@@H](Cc1ccncc1)C(=O)O; αMeS = C[C@](N)(CO)C(=O)O; Dab = NCC[C@H](N)C(=O)O; Dap = NC[C@H](N)C(=O)O; Aib = CC(C)(N)C(=O)O

biological target: T1, IL-1β (Homo sapiens, UniProt P01584); assay: IL-6 assay in MRC5 cells: inhibition of IL-1β induced IL-6 secretion (AlphaLISA); format: cell-based; settings: inhibition of IL-1β induced IL-6 secretion in MRC5 cells; read-out: MRC5 IC50
T1 construct: purchased BioLegend 579404
In short: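 Compound was pre-incubated 1 h at ambient temperature with recombinant human IL-1β at 2λ EC80 before adding human lung fibroblast MRC5 cells (3000/well) in EMEM with 0.025% BSA. After overnight culture at 37 °C, 5% CO2, secreted IL-6 in conditioned medium was measured by AlphaLISA; IC50 from 4-parameter logistic fits.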

T1 sequence (P01584 117-269): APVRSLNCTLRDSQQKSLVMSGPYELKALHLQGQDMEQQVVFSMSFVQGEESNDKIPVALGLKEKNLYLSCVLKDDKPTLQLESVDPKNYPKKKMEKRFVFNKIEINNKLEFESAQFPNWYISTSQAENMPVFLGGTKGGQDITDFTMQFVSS

IC50 [nM]	Compound
0.045	C[C@@H](c1c[nH]c2cccc(F)c12)[C@@H]1NC(=O)[C@@H]2C[C@H](F)CN2C(=O)CNC(=O)[C@H](Cc2ccc(C(=O)O)cc2)NC(=O)[C@H](CC23CC(C2)C3)NC(=O)[C@H](Cc2ccc(-c3ncc(C(=O)O)cn3)cc2)NC(=O)[C@H]2C[C@@H](Cc3ccc(F)cc3)CN2C(=O)CNC(=O)[C@H](CCN)NC(=O)[C@H](CCC(N)=O)NC(=O)[C@H](Cc2cncnc2)NC(=O)C(C)(C)NC(=O)[C@H](Cc2c[nH]c3ccccc23)NC(=O)[C@H](CO)NC(=O)C(C)(C)NC1=O [Example 83] (cyclo([Phe(4-(5-CO2H-2-pyrimidyl))][Ala(1-bicyclo(1.1.1)pentyl)][Phe(4-COOH)]G[Pro(cis-4-F)][Trp(βS-Me,4-F)][Aib]SW[Aib][Ala(pyrimidin-5-yl)]Q[Dab]G[dPro(4R-Bzl(4-F))]))
0.047	C[C@@H](c1c[nH]c2cccc(F)c12)[C@@H]1NC(=O)[C@@H]2C[C@H](F)CN2C(=O)CNC(=O)[C@H](Cc2ccc(C(=O)O)cc2)NC(=O)[C@H](CC23CC(C2)C3)NC(=O)[C@H](Cc2ccc(-c3ncc(C(=O)O)cn3)cc2)NC(=O)[C@H]2C[C@@H](Cc3ccc(F)cc3)CN2C(=O)CNC(=O)[C@H](CCN)NC(=O)[C@H](CCC(N)=O)NC(=O)[C@H](Cc2ccncc2)NC(=O)C(C)(C)NC(=O)[C@H](Cc2c[nH]c3ccccc23)NC(=O)[C@H](CO)NC(=O)C(C)(C)NC1=O [Example 84] (cyclo([Phe(4-(5-CO2H-2-pyrimidyl))][Ala(1-bicyclo(1.1.1)pentyl)][Phe(4-COOH)]G[Pro(cis-4-F)][Trp(βS-Me,4-F)][Aib]SW[Aib][4Pal]Q[Dab]G[dPro(4R-Bzl(4-F))]))
0.074	C[C@@H]1NC(=O)C(C)(C)NC(=O)[C@H]([C@@H](C)c2c[nH]c3cccc(F)c23)NC(=O)[C@@H]2C[C@H](F)CN2C(=O)CNC(=O)[C@H](Cc2ccc(C(=O)O)cc2)NC(=O)[C@H](Cc2ccncc2)NC(=O)[C@H](Cc2ccc(-c3ncc(C(=O)O)cn3)cc2)NC(=O)[C@H]2C[C@@H](Cc3ccncc3)CN2C(=O)CNC(=O)[C@H](CCN)NC(=O)[C@H](CCC(N)=O)NC(=O)[C@H](Cc2ccncc2)NC(=O)C(C)(C)NC(=O)[C@H](Cc2c[nH]c3ccccc23)NC1=O [Example 85] (cyclo([Phe(4-(5-CO2H-2-pyrimidyl))][4Pal][Phe(4-COOH)]G[Pro(cis-4-F)][Trp(βS-Me,4-F)][Aib]AW[Aib][4Pal]Q[Dab]G[dPro(4R-(4-pyridylmethyl))]))
0.083	C[C@@H]1NC(=O)C(C)(C)NC(=O)[C@H]([C@@H](C)c2c[nH]c3cccc(F)c23)NC(=O)[C@@H]2C[C@H](F)CN2C(=O)CNC(=O)[C@H](Cc2ccc(C(=O)O)cc2)NC(=O)[C@H](CC23CC(C2)C3)NC(=O)[C@H](Cc2ccc(-c3ncc(C(=O)O)cn3)cc2)NC(=O)[C@H]2C[C@@H](Cc3ccncc3)CN2C(=O)CNC(=O)[C@H](CCN)NC(=O)[C@H](CCC(N)=O)NC(=O)[C@H](Cc2ccncc2)NC(=O)C(C)(C)NC(=O)[C@H](Cc2c[nH]c3ccccc23)NC1=O [Example 88] (cyclo([Phe(4-(5-CO2H-2-pyrimidyl))][Ala(1-bicyclo(1.1.1)pentyl)][Phe(4-COOH)]G[Pro(cis-4-F)][Trp(βS-Me,4-F)][Aib]AW[Aib][4Pal]Q[Dab]G[dPro(4R-(4-pyridylmethyl))]))
0.045	C[C@@H](c1c[nH]c2cccc(F)c12)[C@@H]1NC(=O)[C@@H]2C[C@H](F)CN2C(=O)CNC(=O)[C@H](Cc2ccc(C(=O)O)cc2)NC(=O)[C@H](CC23CC(C2)C3)NC(=O)[C@H](Cc2ccc(-c3ncc(C(=O)O)cn3)cc2)NC(=O)[C@H]2C[C@@H](Cc3ccncc3)CN2C(=O)CNC(=O)[C@H](CCN)NC(=O)[C@H](CCC(N)=O)NC(=O)[C@H](Cc2ccncc2)NC(=O)C(C)(C)NC(=O)[C@H](Cc2c[nH]c3ccccc23)NC(=O)[C@H](CO)NC(=O)C(C)(C)NC1=O [Example 89] (cyclo([Phe(4-(5-CO2H-2-pyrimidyl))][Ala(1-bicyclo(1.1.1)pentyl)][Phe(4-COOH)]G[Pro(cis-4-F)][Trp(βS-Me,4-F)][Aib]SW[Aib][4Pal]Q[Dab]G[dPro(4R-(4-pyridylmethyl))]))
0.054	C[C@@H](c1c[nH]c2cccc(F)c12)[C@@H]1NC(=O)[C@@H]2C[C@H](F)CN2C(=O)CNC(=O)[C@H](Cc2ccc(C(=O)O)cc2)NC(=O)[C@H](Cc2ccncc2)NC(=O)[C@H](Cc2cnc(-c3ccc(C(=O)O)cc3)nc2)NC(=O)[C@H]2C[C@@H](Cc3ccc(F)cc3)CN2C(=O)CNC(=O)[C@H](CCN)NC(=O)[C@H](CCC(N)=O)NC(=O)[C@H](Cc2cncnc2)NC(=O)C(C)(C)NC(=O)[C@H](Cc2c[nH]c3ccccc23)NC(=O)[C@H](CCC(=O)O)NC(=O)C(C)(C)NC1=O [Example 91] (cyclo([X26][4Pal][Phe(4-COOH)]G[Pro(cis-4-F)][Trp(βS-Me,4-F)][Aib]EW[Aib][Ala(pyrimidin-5-yl)]Q[Dab]G[dPro(4R-Bzl(4-F))]))
0.059	C[C@@H](c1c[nH]c2cccc(F)c12)[C@@H]1NC(=O)[C@@H]2C[C@H](F)CN2C(=O)CNC(=O)[C@H](Cc2ccc(C(=O)O)cc2)NC(=O)[C@H](CC23CC(C2)C3)NC(=O)[C@H](Cc2ccc(-c3ccc(C(=O)O)cc3)cc2)NC(=O)[C@H]2C[C@@H](Cc3ccncc3)CN2C(=O)CNC(=O)[C@H](CCN)NC(=O)[C@H](CCC(N)=O)NC(=O)[C@H](CN)NC(=O)C(C)(C)NC(=O)[C@H](Cc2c[nH]c3ccccc23)NC(=O)[C@H](CCC(=O)O)NC(=O)C(C)(C)NC1=O [Example 93] (cyclo([Bip(4'-COOH)][Ala(1-bicyclo(1.1.1)pentyl)][Phe(4-COOH)]G[Pro(cis-4-F)][Trp(βS-Me,4-F)][Aib]EW[Aib][Dap]Q[Dab]G[dPro(4R-(4-pyridylmethyl))]))
0.054	CC(=O)NCCOc1ccc(C[C@@H]2NC(=O)[C@H]3C[C@@H](Cc4ccc(F)cc4)CN3C(=O)CNC(=O)[C@H](CCN)NC(=O)[C@H](CCC(N)=O)NC(=O)[C@H](Cc3ccncc3)NC(=O)C(C)(C)NC(=O)[C@H](Cc3c[nH]c4ccccc34)NC(=O)[C@H](CCC(=O)O)NC(=O)C(C)(C)NC(=O)[C@H]([C@@H](C)c3c[nH]c4cccc(F)c34)NC(=O)[C@@H]3C[C@H](F)CN3C(=O)CNC(=O)[C@H](Cc3ccc(C(=O)O)cc3)NC(=O)[C@H](Cc3ccncc3)NC2=O)cc1 [Example 95] (cyclo([AEF](Ac)[4Pal][Phe(4-COOH)]G[Pro(cis-4-F)][Trp(βS-Me,4-F)][Aib]EW[Aib][4Pal]Q[Dab]G[dPro(4R-Bzl(4-F))]))
0.036	C[C@@H](c1c[nH]c2cccc(F)c12)[C@@H]1NC(=O)[C@@H]2C[C@H](F)CN2C(=O)CNC(=O)[C@H](Cc2ccc(C(=O)O)cc2)NC(=O)[C@H](CC23CC(C2)C3)NC(=O)[C@H](Cc2ccc(-c3ccc(C(=O)O)cc3)cc2)NC(=O)[C@H]2C[C@@H](Cc3ccc(F)cc3)CN2C(=O)CNC(=O)[C@H](CCN)NC(=O)[C@H](CCC(N)=O)NC(=O)[C@H](CO)NC(=O)C(C)(C)NC(=O)[C@H](Cc2c[nH]c3ccccc23)NC(=O)[C@H](CO)NC(=O)[C@](C)(CO)NC1=O [Example 97] (cyclo([Bip(4'-COOH)][Ala(1-bicyclo(1.1.1)pentyl)][Phe(4-COOH)]G[Pro(cis-4-F)][Trp(βS-Me,4-F)][αMeS]SW[Aib]SQ[Dab]G[dPro(4R-Bzl(4-F))]))
